# Tests used:
# Assay in all cases: Eurofins kinase selectivity profile against 380 other human recombinant kinases (Table S2)
# Type in all cases: biochemical
# [1] = target: T1, 380 human recombinant protein kinases (Homo sapiens, UniProt O00141); settings: SGK(h), read-out: Inhibition rate (%)
# T1 construct: purchased Eurofins (Celle Lévescault)
# T1 sequence (O00141 1-431): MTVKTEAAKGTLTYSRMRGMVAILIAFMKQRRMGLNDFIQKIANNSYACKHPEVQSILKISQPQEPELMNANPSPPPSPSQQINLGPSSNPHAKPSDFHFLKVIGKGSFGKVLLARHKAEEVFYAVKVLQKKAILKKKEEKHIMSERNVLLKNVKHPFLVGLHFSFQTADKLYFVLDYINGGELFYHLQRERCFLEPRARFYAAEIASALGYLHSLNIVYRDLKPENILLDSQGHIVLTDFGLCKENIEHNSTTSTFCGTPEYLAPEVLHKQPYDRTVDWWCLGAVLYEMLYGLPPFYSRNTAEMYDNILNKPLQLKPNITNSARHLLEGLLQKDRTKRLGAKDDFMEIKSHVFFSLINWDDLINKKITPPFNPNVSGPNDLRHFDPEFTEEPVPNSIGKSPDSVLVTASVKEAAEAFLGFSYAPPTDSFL
# Summary of the method: (§1)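 Selectivity panel of 380 human recombinant protein kinases, screened by Eurofins at a range of concentrations.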
# [2] = target: T2, 380 human recombinant protein kinases (Homo sapiens, UniProt O15530); settings: PDK1(h), read-out: Inhibition rate
# T2 construct: purchased Eurofins (Celle Lévescault)
# T2 sequence (O15530 1-556): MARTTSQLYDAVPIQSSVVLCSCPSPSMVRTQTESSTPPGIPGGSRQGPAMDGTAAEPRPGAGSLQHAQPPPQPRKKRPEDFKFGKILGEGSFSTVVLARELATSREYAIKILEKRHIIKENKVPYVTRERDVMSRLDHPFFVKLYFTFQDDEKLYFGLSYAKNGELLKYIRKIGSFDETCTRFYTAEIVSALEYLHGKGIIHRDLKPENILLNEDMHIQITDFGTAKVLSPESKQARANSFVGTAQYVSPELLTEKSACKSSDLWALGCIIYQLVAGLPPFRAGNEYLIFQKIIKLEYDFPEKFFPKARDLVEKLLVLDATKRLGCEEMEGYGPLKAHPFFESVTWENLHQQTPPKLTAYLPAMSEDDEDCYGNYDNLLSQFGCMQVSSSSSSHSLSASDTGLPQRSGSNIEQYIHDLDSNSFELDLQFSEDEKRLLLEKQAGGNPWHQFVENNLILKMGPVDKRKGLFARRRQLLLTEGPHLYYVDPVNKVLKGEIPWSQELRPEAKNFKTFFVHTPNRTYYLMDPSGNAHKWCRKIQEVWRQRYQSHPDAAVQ
# Summary of the method: as §1
# [3] = target: T3, 380 human recombinant protein kinases (Homo sapiens, UniProt O60674); settings: JAK2(h), read-out: Inhibition rate
# T3 construct: purchased Eurofins (Celle Lévescault)
# Summary of the method: as §1
# [4] = target: T4, 380 human recombinant protein kinases (Homo sapiens, UniProt Q8IZX4); settings: TAF1L(h), read-out: Inhibition rate (%)
# T4 construct: purchased Eurofins (Celle Lévescault)
# Summary of the method: as §1
# [5] = target: T5, 380 human recombinant protein kinases (Homo sapiens, UniProt Q8N5S9); settings: CaMKK1(h), read-out: Inhibition rate
# T5 construct: purchased Eurofins (Celle Lévescault)
# Summary of the method: as §1
# [6] = target: T6, 380 human recombinant protein kinases (Homo sapiens, UniProt Q8TD19); settings: NEK9(h), read-out: Inhibition rate
# T6 construct: purchased Eurofins (Celle Lévescault)
# T6 sequence (Q8TD19 1-979): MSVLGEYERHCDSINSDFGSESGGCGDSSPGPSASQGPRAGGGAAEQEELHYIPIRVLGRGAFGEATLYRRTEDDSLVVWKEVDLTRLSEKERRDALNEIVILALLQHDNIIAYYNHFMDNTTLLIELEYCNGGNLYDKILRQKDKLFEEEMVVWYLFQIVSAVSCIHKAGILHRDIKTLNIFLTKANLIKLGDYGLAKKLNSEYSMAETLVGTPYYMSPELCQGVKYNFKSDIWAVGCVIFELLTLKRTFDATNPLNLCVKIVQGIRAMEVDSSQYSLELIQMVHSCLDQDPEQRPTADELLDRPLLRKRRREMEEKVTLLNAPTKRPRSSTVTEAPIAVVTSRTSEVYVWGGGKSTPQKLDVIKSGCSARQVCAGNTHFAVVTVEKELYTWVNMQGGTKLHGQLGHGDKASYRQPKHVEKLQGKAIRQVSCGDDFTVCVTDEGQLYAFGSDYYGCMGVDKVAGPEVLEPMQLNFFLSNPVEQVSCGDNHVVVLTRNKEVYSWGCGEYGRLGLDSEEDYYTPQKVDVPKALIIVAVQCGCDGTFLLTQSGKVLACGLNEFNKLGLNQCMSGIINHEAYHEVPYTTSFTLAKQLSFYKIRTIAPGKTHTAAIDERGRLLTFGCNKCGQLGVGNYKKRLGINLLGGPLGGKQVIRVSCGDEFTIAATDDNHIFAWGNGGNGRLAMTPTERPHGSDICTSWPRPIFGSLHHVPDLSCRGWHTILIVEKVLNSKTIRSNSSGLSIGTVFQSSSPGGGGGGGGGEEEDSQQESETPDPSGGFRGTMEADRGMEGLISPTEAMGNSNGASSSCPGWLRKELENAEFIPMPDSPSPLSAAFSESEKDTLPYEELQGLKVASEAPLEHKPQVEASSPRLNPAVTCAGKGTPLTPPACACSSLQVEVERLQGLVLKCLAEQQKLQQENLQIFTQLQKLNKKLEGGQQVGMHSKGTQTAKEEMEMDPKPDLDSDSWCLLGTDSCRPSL
# Summary of the method: as §1
# [7] = target: T7, 380 human recombinant protein kinases (Homo sapiens, UniProt Q9UKE5); settings: TNIK(h), read-out: Inhibition rate (%)
# T7 construct: purchased Eurofins (Celle Lévescault)
# Summary of the method: as §1
# T3 sequence (O60674 whole entry): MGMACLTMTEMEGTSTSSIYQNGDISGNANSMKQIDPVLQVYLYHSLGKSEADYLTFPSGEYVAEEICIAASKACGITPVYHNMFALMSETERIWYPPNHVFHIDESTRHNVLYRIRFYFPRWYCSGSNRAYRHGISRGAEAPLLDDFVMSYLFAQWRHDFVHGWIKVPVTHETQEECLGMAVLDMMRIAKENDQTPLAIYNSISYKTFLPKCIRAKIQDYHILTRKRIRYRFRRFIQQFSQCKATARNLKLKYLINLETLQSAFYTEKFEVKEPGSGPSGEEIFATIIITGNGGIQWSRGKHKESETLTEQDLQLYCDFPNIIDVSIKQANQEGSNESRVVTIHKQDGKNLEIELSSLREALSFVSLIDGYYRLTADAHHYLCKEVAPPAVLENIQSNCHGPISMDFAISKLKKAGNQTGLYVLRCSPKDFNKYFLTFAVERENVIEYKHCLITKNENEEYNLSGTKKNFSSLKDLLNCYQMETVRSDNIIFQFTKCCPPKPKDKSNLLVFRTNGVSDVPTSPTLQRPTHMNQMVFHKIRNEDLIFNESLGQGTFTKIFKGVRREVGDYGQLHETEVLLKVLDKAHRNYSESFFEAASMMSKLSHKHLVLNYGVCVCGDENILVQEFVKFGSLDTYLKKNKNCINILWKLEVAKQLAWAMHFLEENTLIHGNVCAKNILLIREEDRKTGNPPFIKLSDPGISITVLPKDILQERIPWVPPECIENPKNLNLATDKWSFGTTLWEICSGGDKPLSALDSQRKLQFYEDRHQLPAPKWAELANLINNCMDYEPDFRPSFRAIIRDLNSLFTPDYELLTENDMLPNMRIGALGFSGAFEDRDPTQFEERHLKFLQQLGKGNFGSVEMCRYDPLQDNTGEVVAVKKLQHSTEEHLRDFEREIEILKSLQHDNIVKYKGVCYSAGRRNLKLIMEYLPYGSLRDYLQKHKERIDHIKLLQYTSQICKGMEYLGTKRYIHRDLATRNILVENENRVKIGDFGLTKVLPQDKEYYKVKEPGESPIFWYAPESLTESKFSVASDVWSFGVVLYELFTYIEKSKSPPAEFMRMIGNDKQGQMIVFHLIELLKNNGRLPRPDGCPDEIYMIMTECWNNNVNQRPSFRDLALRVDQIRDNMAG
# T4 sequence (Q8IZX4 whole entry): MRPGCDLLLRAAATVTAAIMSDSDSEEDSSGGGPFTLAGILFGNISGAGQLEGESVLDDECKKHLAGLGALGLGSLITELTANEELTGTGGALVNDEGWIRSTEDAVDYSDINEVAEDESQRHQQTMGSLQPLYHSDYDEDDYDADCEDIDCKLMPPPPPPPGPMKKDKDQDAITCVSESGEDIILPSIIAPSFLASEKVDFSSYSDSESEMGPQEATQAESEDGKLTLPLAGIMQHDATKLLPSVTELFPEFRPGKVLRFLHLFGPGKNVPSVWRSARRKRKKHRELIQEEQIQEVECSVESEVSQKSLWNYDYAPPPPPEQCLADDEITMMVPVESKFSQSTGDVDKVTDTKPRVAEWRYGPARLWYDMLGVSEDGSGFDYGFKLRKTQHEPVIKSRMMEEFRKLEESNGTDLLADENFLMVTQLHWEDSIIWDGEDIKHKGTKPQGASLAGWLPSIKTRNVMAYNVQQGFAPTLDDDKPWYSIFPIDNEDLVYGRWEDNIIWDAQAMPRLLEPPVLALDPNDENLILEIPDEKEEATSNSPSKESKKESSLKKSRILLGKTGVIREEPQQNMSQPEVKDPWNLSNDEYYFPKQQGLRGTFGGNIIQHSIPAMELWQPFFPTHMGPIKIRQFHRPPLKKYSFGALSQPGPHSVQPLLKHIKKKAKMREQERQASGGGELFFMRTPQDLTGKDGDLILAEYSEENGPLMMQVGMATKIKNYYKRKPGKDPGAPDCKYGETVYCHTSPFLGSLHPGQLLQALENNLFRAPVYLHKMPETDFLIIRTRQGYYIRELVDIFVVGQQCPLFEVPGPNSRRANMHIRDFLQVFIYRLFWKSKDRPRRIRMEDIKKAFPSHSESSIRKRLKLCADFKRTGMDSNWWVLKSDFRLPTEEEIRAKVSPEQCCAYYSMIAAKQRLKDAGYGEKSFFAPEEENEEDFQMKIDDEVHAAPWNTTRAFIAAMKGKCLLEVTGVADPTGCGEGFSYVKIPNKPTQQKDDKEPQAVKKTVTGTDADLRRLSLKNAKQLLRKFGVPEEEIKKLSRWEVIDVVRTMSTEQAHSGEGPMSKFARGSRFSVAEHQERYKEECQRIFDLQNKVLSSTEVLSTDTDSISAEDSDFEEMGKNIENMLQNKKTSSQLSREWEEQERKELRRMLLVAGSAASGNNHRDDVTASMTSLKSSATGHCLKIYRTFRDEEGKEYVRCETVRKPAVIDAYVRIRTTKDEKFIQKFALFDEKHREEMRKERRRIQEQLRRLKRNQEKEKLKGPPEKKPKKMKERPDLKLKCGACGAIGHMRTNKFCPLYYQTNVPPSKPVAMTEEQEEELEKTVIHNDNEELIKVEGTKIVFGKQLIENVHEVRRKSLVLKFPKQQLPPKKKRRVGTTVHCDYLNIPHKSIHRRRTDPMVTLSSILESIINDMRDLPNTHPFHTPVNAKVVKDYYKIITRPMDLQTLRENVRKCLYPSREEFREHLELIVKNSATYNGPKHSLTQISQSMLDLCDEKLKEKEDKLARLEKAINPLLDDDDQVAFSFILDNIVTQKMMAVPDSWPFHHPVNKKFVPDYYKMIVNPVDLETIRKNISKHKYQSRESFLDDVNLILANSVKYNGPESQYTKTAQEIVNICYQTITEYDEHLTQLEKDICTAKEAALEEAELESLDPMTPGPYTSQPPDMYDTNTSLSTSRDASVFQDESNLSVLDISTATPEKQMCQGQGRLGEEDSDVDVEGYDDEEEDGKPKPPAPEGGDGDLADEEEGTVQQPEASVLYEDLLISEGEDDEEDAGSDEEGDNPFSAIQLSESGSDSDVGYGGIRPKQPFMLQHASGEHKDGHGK
# T5 sequence (Q8N5S9 whole entry): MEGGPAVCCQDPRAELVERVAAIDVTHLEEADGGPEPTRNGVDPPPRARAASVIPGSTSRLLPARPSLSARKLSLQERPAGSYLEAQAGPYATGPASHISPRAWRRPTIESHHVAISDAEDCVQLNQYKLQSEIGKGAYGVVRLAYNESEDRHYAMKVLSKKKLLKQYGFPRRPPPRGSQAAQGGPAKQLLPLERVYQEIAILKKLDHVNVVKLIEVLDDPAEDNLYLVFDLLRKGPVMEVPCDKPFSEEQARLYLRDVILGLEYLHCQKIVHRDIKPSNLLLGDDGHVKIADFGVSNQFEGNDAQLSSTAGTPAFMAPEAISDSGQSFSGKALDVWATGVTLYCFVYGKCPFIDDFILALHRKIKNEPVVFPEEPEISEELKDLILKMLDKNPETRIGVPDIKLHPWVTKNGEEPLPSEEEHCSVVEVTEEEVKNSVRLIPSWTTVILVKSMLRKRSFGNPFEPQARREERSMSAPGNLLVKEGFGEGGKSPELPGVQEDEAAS
# T7 sequence (Q9UKE5 whole entry): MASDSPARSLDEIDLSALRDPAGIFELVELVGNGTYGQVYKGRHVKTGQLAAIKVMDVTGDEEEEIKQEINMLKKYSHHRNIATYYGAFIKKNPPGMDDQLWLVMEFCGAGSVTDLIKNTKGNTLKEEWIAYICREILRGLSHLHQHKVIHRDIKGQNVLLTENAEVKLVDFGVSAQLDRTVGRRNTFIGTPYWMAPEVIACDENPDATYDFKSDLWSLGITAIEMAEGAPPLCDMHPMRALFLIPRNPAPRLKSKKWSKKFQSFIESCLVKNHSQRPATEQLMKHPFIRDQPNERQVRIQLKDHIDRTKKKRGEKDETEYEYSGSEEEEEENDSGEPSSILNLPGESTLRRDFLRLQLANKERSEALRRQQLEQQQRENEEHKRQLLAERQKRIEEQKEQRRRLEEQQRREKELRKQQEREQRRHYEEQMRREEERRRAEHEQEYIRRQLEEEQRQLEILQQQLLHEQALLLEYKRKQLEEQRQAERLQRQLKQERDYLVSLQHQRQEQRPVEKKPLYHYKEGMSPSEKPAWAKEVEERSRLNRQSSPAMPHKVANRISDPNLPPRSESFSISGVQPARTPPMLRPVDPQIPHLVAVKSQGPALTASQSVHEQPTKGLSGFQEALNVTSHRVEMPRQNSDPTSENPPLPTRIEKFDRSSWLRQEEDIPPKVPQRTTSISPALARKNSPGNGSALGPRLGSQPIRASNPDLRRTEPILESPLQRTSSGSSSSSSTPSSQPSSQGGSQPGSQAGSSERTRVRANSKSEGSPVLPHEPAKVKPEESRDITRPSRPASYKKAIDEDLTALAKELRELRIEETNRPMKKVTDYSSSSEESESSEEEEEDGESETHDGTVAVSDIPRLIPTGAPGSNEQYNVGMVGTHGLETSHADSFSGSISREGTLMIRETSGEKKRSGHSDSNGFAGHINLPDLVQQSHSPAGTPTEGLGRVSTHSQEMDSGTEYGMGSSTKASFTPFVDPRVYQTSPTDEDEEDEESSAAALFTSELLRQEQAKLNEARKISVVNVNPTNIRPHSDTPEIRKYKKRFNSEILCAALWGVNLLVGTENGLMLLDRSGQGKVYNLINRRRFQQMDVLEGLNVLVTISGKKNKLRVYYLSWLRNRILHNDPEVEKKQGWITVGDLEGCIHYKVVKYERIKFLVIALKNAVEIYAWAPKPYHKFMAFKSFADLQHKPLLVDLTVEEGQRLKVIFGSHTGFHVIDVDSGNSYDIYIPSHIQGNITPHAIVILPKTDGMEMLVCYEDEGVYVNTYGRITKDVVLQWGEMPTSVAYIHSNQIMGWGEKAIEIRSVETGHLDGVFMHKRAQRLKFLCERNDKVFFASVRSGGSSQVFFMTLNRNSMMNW
structure (smiles),measurement,setting,value
C=CC(=O)Nc1cc(-c2cc(-c3cc4c([nH]3)CCNC4=O)ccn2)ccc1OC(F)(F)F [compound 11],inhibition at 0.01 µM,[1]; 10 nM,0%
same,inhibition at 0.1 µM,[1]; 100 nM,7%
same,inhibition at 1 µM,[1]; 1000 nM,1%
same,inhibition at 0.01 µM,[2]; 10 nM,-9%
same,inhibition at 0.1 µM,[2]; 100 nM,-2%
same,inhibition at 1 µM,[2]; 1000 nM,3%
same,inhibition at 0.01 µM,[3]; 10 nM,-6%
same,inhibition at 0.1 µM,[3]; 100 nM,-10%
same,inhibition at 1 µM,[3]; 1000 nM,-8%
same,inhibition at 0.01 µM,[4]; 10 nM,51%
same,inhibition at 0.1 µM,[4]; 100 nM,74%
same,inhibition at 1 µM,[4]; 1000 nM,80%
same,inhibition at 0.01 µM,[5]; 10 nM,-7%
same,inhibition at 0.1 µM,[5]; 100 nM,4%
same,inhibition at 1 µM,[5]; 1000 nM,11%
same,inhibition at 0.01 µM,[6]; 10 nM,-2%
same,inhibition at 0.1 µM,[6]; 100 nM,-6%
same,inhibition at 1 µM,[6]; 1000 nM,1%
same,inhibition at 0.01 µM,[7]; 10 nM,-12%
same,inhibition at 0.1 µM,[7]; 100 nM,9%
same,inhibition at 1 µM,[7]; 1000 nM,42%
